Source: paper PMC11242640 (International Journal of Molecular Sciences, 2024)

Target: eeAChE (Electrophorus electricus, UniProt O42275)
Sequence (O42275 24-633): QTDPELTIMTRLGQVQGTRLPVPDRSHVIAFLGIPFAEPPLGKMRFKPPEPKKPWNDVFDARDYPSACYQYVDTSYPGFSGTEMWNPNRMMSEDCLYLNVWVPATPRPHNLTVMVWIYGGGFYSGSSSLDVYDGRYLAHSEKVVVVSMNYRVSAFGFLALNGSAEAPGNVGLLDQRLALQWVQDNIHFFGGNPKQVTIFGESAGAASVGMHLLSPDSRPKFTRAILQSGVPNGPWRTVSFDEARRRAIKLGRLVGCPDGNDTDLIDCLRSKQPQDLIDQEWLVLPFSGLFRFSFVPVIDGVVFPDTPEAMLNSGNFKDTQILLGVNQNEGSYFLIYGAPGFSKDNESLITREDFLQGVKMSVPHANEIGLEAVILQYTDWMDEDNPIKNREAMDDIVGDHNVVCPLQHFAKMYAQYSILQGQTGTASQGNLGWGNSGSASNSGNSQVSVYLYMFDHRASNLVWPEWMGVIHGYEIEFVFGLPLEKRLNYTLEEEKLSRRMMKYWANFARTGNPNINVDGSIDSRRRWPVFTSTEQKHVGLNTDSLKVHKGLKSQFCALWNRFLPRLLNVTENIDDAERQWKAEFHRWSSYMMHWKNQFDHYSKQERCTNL
Assay: eeAChE inhibition, modified Ellman's method
Assay type: biochemical
Details: not given
Description: (§1) Enzymes were prepared in 20 mM Tris buffer pH 7.5 and DTNB, ATChI, and BTChI in 50 mM Tris buffer pH 8.0. Cholinesterase activity was evaluated using a 96-well microplate reader (Bio Tek 800TSUV Absorbance Reader, Agilent, Santa Clara, CA, USA) at room temperature. The microplate well was filled with 180 μL of Tris buffer (50 mM, pH 8.0), 10 μL of tested solutions (final concentrations in a range of 20–1000 μM), 10 μL of an enzyme (final concentration 0.04 U/mL), 10 μL of DTNB (final concentration 0.3 mM), and […] of ATChI/BTChI (final concentration of 0.5 mM). […] Without the use of inhibitors and enzymes, non-enzymatic hydrolysis was evaluated as a blank for the control measurement. The non-enzymatic hydrolysis reaction with an added inhibitor was used as a blank for the samples. The same volume of buffer was substituted for the enzyme. All experiments were run in triplicate. The following formula was applied to calculate the inhibition percentage: Inhibition (%) = [(AC − AT)/AC] × 100, where AC is the activity of the enzyme without a test sample and AT is the activity of the enzyme with a test sample. […] The inhibitory activity of ethanol was subtracted from all the samples. The IC50 values were obtained by a nonlinear fit of compound concentration values versus the response.
Compound `Cc1ccc(/C=C/c2cc(Cl)ccc2O)s1` [Compound 6, (E)-4-chloro-2-(2-(5-methylthiophen-2-yl)vinyl)phenol] has an IC50 of 27.1 µM. `COc1ccc(O)c(/C=C/c2ccc(C)s2)c1` [Compound 7, (E)-4-methoxy-2-(2-(5-methylthiophen-2-yl)vinyl)phenol] gave an IC50 of 62.9 µM. Compound `Cc1ccc(O)c(/C=C/c2ccc(C)s2)c1` [Compound 8, (E)-4-methyl-2-(2-(5-methylthiophen-2-yl)vinyl)phenol] has an IC50 of 92.4 µM.

Same assay, conditions: dash = IC50 value not achieved
In the case of `Oc1ccc(F)cc1/C=C/c1cccs1` [Compound 1, (E)-4-fluoro-2-(2-(thiophen-2-yl)vinyl)phenol], the IC50 is reported as 178 µM. Compound `Oc1ccc(Cl)cc1/C=C/c1cccs1` [Compound 2, (E)-4-chloro-2-(2-(thiophen-2-yl)vinyl)phenol] has an IC50 of 82.3 µM. For `COc1ccc(O)c(/C=C/c2cccs2)c1` [Compound 3, (E)-4-methoxy-2-(2-(thiophen-2-yl)vinyl)phenol], the IC50 was 405 µM. With `Cc1ccc(O)c(/C=C/c2cccs2)c1` [Compound 4, (E)-4-methyl-2-(2-(thiophen-2-yl)vinyl)phenol] the IC50 was 225 µM.

Same assay, conditions: read-out: eeAChE Inhibition (%)
Compound `Oc1ccc(F)cc1/C=C/c1cccs1` [Compound 1, (E)-4-fluoro-2-(2-(thiophen-2-yl)vinyl)phenol] has an inhibition at 500 µM of 80.9 ± 1.9%. `Oc1ccc(Cl)cc1/C=C/c1cccs1` [Compound 2, (E)-4-chloro-2-(2-(thiophen-2-yl)vinyl)phenol] gave an inhibition at 250 µM of 83 ± 2.5%. Compound `COc1ccc(O)c(/C=C/c2cccs2)c1` [Compound 3, (E)-4-methoxy-2-(2-(thiophen-2-yl)vinyl)phenol] has an inhibition at 500 µM of 77.8 ± 5.2%. Compound `Cc1ccc(O)c(/C=C/c2cccs2)c1` [Compound 4, (E)-4-methyl-2-(2-(thiophen-2-yl)vinyl)phenol] has an inhibition at 250 µM of 82.1 ± 1.1%. Compound `Cc1ccc(/C=C/c2cc(Cl)ccc2O)s1` [Compound 6, (E)-4-chloro-2-(2-(5-methylthiophen-2-yl)vinyl)phenol] has an inhibition at 80 µM of 82.4 ± 0.8%. Work on `COc1ccc(O)c(/C=C/c2ccc(C)s2)c1` [Compound 7, (E)-4-methoxy-2-(2-(5-methylthiophen-2-yl)vinyl)phenol] yielded an inhibition at 200 µM of 81.1 ± 1.1%. `Cc1ccc(O)c(/C=C/c2ccc(C)s2)c1` [Compound 8, (E)-4-methyl-2-(2-(5-methylthiophen-2-yl)vinyl)phenol] showed an inhibition at 150 µM of 78.2 ± 7.7%.

Target: T1, eqBChE (Equus caballus, UniProt P81908)
T1 construct: eqBChE (from equine serum); purchased Sigma–Aldrich (St. Louis, MO, USA); host or cells: equine serum
T1 sequence (P81908 whole entry): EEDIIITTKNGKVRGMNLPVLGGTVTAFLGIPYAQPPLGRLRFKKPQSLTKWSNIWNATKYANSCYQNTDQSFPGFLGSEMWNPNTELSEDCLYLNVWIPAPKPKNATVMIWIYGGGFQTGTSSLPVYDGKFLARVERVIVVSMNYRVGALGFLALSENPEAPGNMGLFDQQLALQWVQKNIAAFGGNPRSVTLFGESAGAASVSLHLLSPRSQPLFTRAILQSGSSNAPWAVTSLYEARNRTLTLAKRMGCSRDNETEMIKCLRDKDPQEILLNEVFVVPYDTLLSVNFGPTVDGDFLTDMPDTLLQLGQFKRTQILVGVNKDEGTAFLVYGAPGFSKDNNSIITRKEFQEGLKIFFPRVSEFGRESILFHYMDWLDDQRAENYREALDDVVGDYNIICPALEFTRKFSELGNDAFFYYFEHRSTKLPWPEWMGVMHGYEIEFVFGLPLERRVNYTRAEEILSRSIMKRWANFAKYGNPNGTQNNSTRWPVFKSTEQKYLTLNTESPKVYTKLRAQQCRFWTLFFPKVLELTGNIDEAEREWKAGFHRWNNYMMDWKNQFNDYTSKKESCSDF
Assay: eqBChE inhibition, modified Ellman's method
Assay type: biochemical
Details: not given
Description: as §1
In the case of `Cc1ccc(/C=C/c2cc(Cl)ccc2O)s1` [Compound 6, (E)-4-chloro-2-(2-(5-methylthiophen-2-yl)vinyl)phenol], the IC50 is reported as 39.7 µM. For `COc1ccc(O)c(/C=C/c2ccc(C)s2)c1` [Compound 7, (E)-4-methoxy-2-(2-(5-methylthiophen-2-yl)vinyl)phenol], the IC50 was 42.5 µM. Work on `Cc1ccc(O)c(/C=C/c2ccc(C)s2)c1` [Compound 8, (E)-4-methyl-2-(2-(5-methylthiophen-2-yl)vinyl)phenol] yielded an IC50 of 24.8 µM.

Same assay, conditions: dash = IC50 value not achieved
Work on `Oc1ccc(F)cc1/C=C/c1cccs1` [Compound 1, (E)-4-fluoro-2-(2-(thiophen-2-yl)vinyl)phenol] yielded an IC50 of 66 µM. In the case of `Oc1ccc(Cl)cc1/C=C/c1cccs1` [Compound 2, (E)-4-chloro-2-(2-(thiophen-2-yl)vinyl)phenol], the IC50 is reported as 53 µM. With `COc1ccc(O)c(/C=C/c2cccs2)c1` [Compound 3, (E)-4-methoxy-2-(2-(thiophen-2-yl)vinyl)phenol] the IC50 was 206 µM. In the case of `Cc1ccc(O)c(/C=C/c2cccs2)c1` [Compound 4, (E)-4-methyl-2-(2-(thiophen-2-yl)vinyl)phenol], the IC50 is reported as 36.5 µM.

Same assay, conditions: read-out: eqBChE Inhibition (%)
`Oc1ccc(F)cc1/C=C/c1cccs1` [Compound 1, (E)-4-fluoro-2-(2-(thiophen-2-yl)vinyl)phenol] gave an inhibition at 400 µM of 83.5 ± 0.8%. Compound `Oc1ccc(Cl)cc1/C=C/c1cccs1` [Compound 2, (E)-4-chloro-2-(2-(thiophen-2-yl)vinyl)phenol] has an inhibition at 200 µM of 80.4 ± 6.4%. In the case of `COc1ccc(O)c(/C=C/c2cccs2)c1` [Compound 3, (E)-4-methoxy-2-(2-(thiophen-2-yl)vinyl)phenol], the inhibition at 500 µM is reported as 68.5 ± 6.2%. `Cc1ccc(O)c(/C=C/c2cccs2)c1` [Compound 4, (E)-4-methyl-2-(2-(thiophen-2-yl)vinyl)phenol] showed an inhibition at 250 µM of 81.1 ± 2.2%. With `Cc1ccc(/C=C/c2cc(Cl)ccc2O)s1` [Compound 6, (E)-4-chloro-2-(2-(5-methylthiophen-2-yl)vinyl)phenol] the inhibition at 100 µM was 84 ± 1.8%. For `COc1ccc(O)c(/C=C/c2ccc(C)s2)c1` [Compound 7, (E)-4-methoxy-2-(2-(5-methylthiophen-2-yl)vinyl)phenol], the inhibition at 200 µM was 83.1 ± 0.8%. Compound `Cc1ccc(O)c(/C=C/c2ccc(C)s2)c1` [Compound 8, (E)-4-methyl-2-(2-(5-methylthiophen-2-yl)vinyl)phenol] has an inhibition at 250 µM of 88.5 ± 5%.

System: not listed separately
Assay: DPPH radical scavenging activity
Details: 30 min, 25 °C; dash = IC50 value not achieved
Description: DPPH is the most commonly used method to determine the antioxidant activity of different potential antioxidants. DPPH is a stable organic radical capable of accepting an electron or a hydrogen radical and changing into a non-radical form, DPPH-H [50]. The percentage of radical quenching is used as a measure of the compound antioxidant capacity.
DPPH radical scavenging activity. The stable radical 1,1-diphenyl-2-picrylhydrazyl (DPPH, Sigma–Aldrich, St. Louis, MO, USA) is the reagent used in this spectrophotometric test. The DPPH ethanolic solution (c = 8⋅10^−4 mol/L) was prepared daily and stored in a dark flask at 4 °C between the measurements. […] The reaction mixture was vortexed and incubated in the dark for 30 min at 25 °C. […] Antioxidant substances reduce the DPPH radical and decrease its absorbance at this wavelength. The DPPH inhibition, reported as a percentage, was obtained according to the equation: Inhibition (%) = [(AC(0) − AA(t))/AC(0)] × 100, where AC(0) is the absorbance of the control at t = 0 min and AA(t) is the absorbance of the antioxidant at t = 30 min. Each of the measurements was conducted three times. Inhibition percentages were expressed as mean values ± standard deviation. IC50 values were calculated using a nonlinear fit of compound concentration values versus the inhibition percentage.
For `Oc1ccc(F)cc1/C=C/c1cccs1` [Compound 1, (E)-4-fluoro-2-(2-(thiophen-2-yl)vinyl)phenol], the IC50 was 159 µM. In the case of `Oc1ccc(Cl)cc1/C=C/c1cccs1` [Compound 2, (E)-4-chloro-2-(2-(thiophen-2-yl)vinyl)phenol], the IC50 is reported as 265 µM. For `COc1ccc(O)c(/C=C/c2cccs2)c1` [Compound 3, (E)-4-methoxy-2-(2-(thiophen-2-yl)vinyl)phenol], the IC50 was 36.2 µM. Work on `Cc1ccc(O)c(/C=C/c2cccs2)c1` [Compound 4, (E)-4-methyl-2-(2-(thiophen-2-yl)vinyl)phenol] yielded an IC50 of 51.4 µM. Work on `Cc1ccc(/C=C/c2cc(Cl)ccc2O)s1` [Compound 6, (E)-4-chloro-2-(2-(5-methylthiophen-2-yl)vinyl)phenol] yielded an IC50 greater than 250 µM. `COc1ccc(O)c(/C=C/c2ccc(C)s2)c1` [Compound 7, (E)-4-methoxy-2-(2-(5-methylthiophen-2-yl)vinyl)phenol] showed an IC50 of 23.8 µM. `Cc1ccc(O)c(/C=C/c2ccc(C)s2)c1` [Compound 8, (E)-4-methyl-2-(2-(5-methylthiophen-2-yl)vinyl)phenol] showed an IC50 of 26.3 µM.

Same assay, conditions: at maximal concentration tested, 50 μM
With `COc1ccc(O)c(/C=C/c2ccc(C)s2)c1` [Compound 7, (E)-4-methoxy-2-(2-(5-methylthiophen-2-yl)vinyl)phenol] the “DPPH Inhibition (%)” value was 86.2 ± 2.3 (50) %.

Same assay, conditions: at maximal concentration tested, 250 μM
With `Cc1ccc(O)c(/C=C/c2ccc(C)s2)c1` [Compound 8, (E)-4-methyl-2-(2-(5-methylthiophen-2-yl)vinyl)phenol] the “DPPH Inhibition (%)” value was 89.3 ± 1.2 (250) %.

Same assay, conditions: at maximal concentration tested, 400 μM
In the case of `Cc1ccc(O)c(/C=C/c2cccs2)c1` [Compound 4, (E)-4-methyl-2-(2-(thiophen-2-yl)vinyl)phenol], the “DPPH Inhibition (%)” value is reported as 90.3 ± 0.6 (400) %. In the case of `Cc1ccc(/C=C/c2cc(Cl)ccc2O)s1` [Compound 6, (E)-4-chloro-2-(2-(5-methylthiophen-2-yl)vinyl)phenol], the “DPPH Inhibition (%)” value is reported as 42.9 ± 2.7 (400) %.

Same assay, conditions: at maximal concentration tested, 500 μM
In the case of `Oc1ccc(F)cc1/C=C/c1cccs1` [Compound 1, (E)-4-fluoro-2-(2-(thiophen-2-yl)vinyl)phenol], the “DPPH Inhibition (%)” value is reported as 77.2 ± 0.5 (500) %. With `Oc1ccc(Cl)cc1/C=C/c1cccs1` [Compound 2, (E)-4-chloro-2-(2-(thiophen-2-yl)vinyl)phenol] the “DPPH Inhibition (%)” value was 65.0 ± 2.4 (500) %. With `COc1ccc(O)c(/C=C/c2cccs2)c1` [Compound 3, (E)-4-methoxy-2-(2-(thiophen-2-yl)vinyl)phenol] the “DPPH Inhibition (%)” value was 87.7 ± 0.8 (500) %.

System: not listed separately
Assay: CUPRAC reducing antioxidant capacity assay
Details: Trolox equivalent, pH 7.0
Description: The CUPRAC test is based on the reduction of Cu^2+ to Cu^+ due to the action of antioxidants. A reaction occurs at a pH 7.0 (close to physiological pH) in the presence of neocuproin. The reactive Ar-OH groups of polyphenols and other antioxidants are oxidized to the corresponding quinones, and Cu^2+-neocuproin is reduced to the colored complex Cu^+-neocuproin [51].
CUPRAC-reducing-antioxidant-capacity assay. […] Ammonium acetate, neocuproine, copper(II) chloride, and standard Trolox were purchased from Sigma–Aldrich (St. Louis, MO, USA). The reaction mixture contained 1 mL of each of these solutions: NH4Ac buffer (1 M, pH 7.0), Cu(II) chloride (10 mM), and neocuproine (7.5 mM, dissolved in ethanol). To make a final volume of 4.1 mL, x mL of the testing sample (or standard Trolox) and (1,1-x) mL of H2O were added to an initial mixture. The tubes were vortexed and left for 30 min at room temperature. As a blank test, the same mixture was used only without the test sample. Absorbance was recorded at 450 nm (UV-1800 UV/Vis spectrophotometer, Shimadzu, Kyoto, Japan).
In the case of `Oc1ccc(F)cc1/C=C/c1cccs1` [Compound 1, (E)-4-fluoro-2-(2-(thiophen-2-yl)vinyl)phenol], the CUPRAC is reported as 0.925 mol TE/mol of Compound. For `Oc1ccc(Cl)cc1/C=C/c1cccs1` [Compound 2, (E)-4-chloro-2-(2-(thiophen-2-yl)vinyl)phenol], the CUPRAC was 0.713 mol TE/mol of Compound. With `COc1ccc(O)c(/C=C/c2cccs2)c1` [Compound 3, (E)-4-methoxy-2-(2-(thiophen-2-yl)vinyl)phenol] the CUPRAC was 1.111 mol TE/mol of Compound. In the case of `Cc1ccc(O)c(/C=C/c2cccs2)c1` [Compound 4, (E)-4-methyl-2-(2-(thiophen-2-yl)vinyl)phenol], the CUPRAC is reported as 0.852 mol TE/mol of Compound. For `Cc1ccc(/C=C/c2cc(Cl)ccc2O)s1` [Compound 6, (E)-4-chloro-2-(2-(5-methylthiophen-2-yl)vinyl)phenol], the CUPRAC was 1.407 mol TE/mol of Compound. With `COc1ccc(O)c(/C=C/c2ccc(C)s2)c1` [Compound 7, (E)-4-methoxy-2-(2-(5-methylthiophen-2-yl)vinyl)phenol] the CUPRAC was 2.350 mol TE/mol of Compound. With `Cc1ccc(O)c(/C=C/c2ccc(C)s2)c1` [Compound 8, (E)-4-methyl-2-(2-(5-methylthiophen-2-yl)vinyl)phenol] the CUPRAC was 1.148 mol TE/mol of Compound.
